The values that follow come from PubChem BioAssay AID212 (DTP/NCI, 2004).

The assay relates to BDF1 mice, colon carcinoma 38 sc, T/C %. Briefly: NCI In Vivo Anticancer Drug Screen. Data for tumor model Colon Carcinoma 38 (subcutaneous) in B6D2F1 (BDF1) mice. The method in brief:
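Ratio of survival or tumor size, compound-treated animals relative to vehicle controls, in tumor-bearing mice.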

Setting [1] is: endpoint: median tumor weight (est.), dose: 50.0 mg/kg/injection, schedule: Q07DX002 (ip), vehicle: Klucel (hydroxypropylcellulose) (HPC), higher = larger tumour.
The mark [2] stands for this setting: endpoint: median tumor weight (est.), dose: 100.0 mg/kg/injection, schedule: Q07DX002 (ip), vehicle: Klucel (hydroxypropylcellulose) (HPC), higher = larger tumour.
[3] abbreviates: endpoint: median tumor weight (est.), dose: 200.0 mg/kg/injection, schedule: Q07DX002 (ip), vehicle: Klucel (hydroxypropylcellulose) (HPC), higher = larger tumour.
Where [4] appears, read: endpoint: median tumor weight (est.), dose: 12.5 mg/kg/injection, schedule: Q07DX002 (ip), vehicle: Klucel (hydroxypropylcellulose) (HPC), higher = larger tumour.
The mark [5] stands for this setting: endpoint: median tumor weight (est.), dose: 25.0 mg/kg/injection, schedule: Q07DX002 (ip), vehicle: Klucel (hydroxypropylcellulose) (HPC), higher = larger tumour.
[6] abbreviates: endpoint: median tumor weight (est.), dose: 1.0 mg/kg/injection, schedule: Q07DX002 (ip), vehicle: saline, higher = larger tumour.

Molecules are shown by their SMILES. “And” between values parts separate entries of the source, which are not always exact repeats. Equal values may be shown once. Records with an inconclusive call do not appear.

For the compound `Clc1ccc(C2SC=Cc3ccccc32)cc1` (stereo not drawn), the T/C is 56 % of control under setting [1]; 47 % of control under setting [2]; 57 % of control under setting [3]; 93 % of control (endpoint: median tumor weight (est.), dose: 400.0 mg/kg/injection, schedule: Q07DX002 (ip), vehicle: Klucel (hydroxypropylcellulose) (HPC), higher = larger tumour).
On to `CCC1OCC(C(Cl)CCl)O1` (stereo not drawn), for which the T/C under setting [4] is 101 % of control; the T/C (endpoint: median tumor weight (est.), dose: 12.5 mg/kg/injection, schedule: Q07DX003 (ip), vehicle: Klucel (hydroxypropylcellulose) (HPC), higher = larger tumour) was 82 % of control; the T/C under setting [5] is 95 % of control and 96 % of control; the T/C (endpoint: median tumor weight (est.), dose: 25.0 mg/kg/injection, schedule: Q07DX003 (ip), vehicle: Klucel (hydroxypropylcellulose) (HPC), higher = larger tumour) was 96 % of control; the T/C (endpoint: median tumor weight (est.), dose: 50.0 mg/kg/injection, schedule: Q07DX003 (ip), vehicle: Klucel (hydroxypropylcellulose) (HPC), higher = larger tumour) was 92 % of control; the T/C (endpoint: median tumor weight (est.), dose: 100.0 mg/kg/injection, schedule: Q07DX003 (ip), vehicle: Klucel (hydroxypropylcellulose) (HPC), higher = larger tumour) is 69 % of control. Moreover, the T/C was 203 % of control under setting [3]; 67 % of control (endpoint: median tumor weight (est.), dose: 200.0 mg/kg/injection, schedule: Q07DX003 (ip), vehicle: Klucel (hydroxypropylcellulose) (HPC), higher = larger tumour); 39 % of control (endpoint: median tumor weight (est.), dose: 400.0 mg/kg/injection, schedule: Q07DX003 (ip), vehicle: Klucel (hydroxypropylcellulose) (HPC), higher = larger tumour).
Turning to `O=S(=O)(O)O`, the T/C reads like this: under setting [5], 110 % of control; under setting [1], 103 % of control; under setting [2], 78 % of control; under setting [3], 112 % of control.
Turning to `[Cl][Pt+2][Cl].[NH-]CC1(C[NH-])CCC1`, the T/C (endpoint: median tumor weight (est.), dose: 12.5 mg/kg/injection, schedule: Q07DX002 (ip), vehicle: suspension in saline, higher = larger tumour) was 50 % of control.
Turning to `CN1c2c(nc(N)[nH]c2=O)NCC1CCNc1ccc(C(=O)NC(CCC(=O)O)C(=O)O)cc1` (stereo not drawn), the T/C by setting is: (endpoint: median tumor weight (est.), dose: 50.0 mg/kg/injection, schedule: Q07DX003 (ip), vehicle: saline, higher = larger tumour) 155 % of control; (endpoint: median tumor weight (est.), dose: 100.0 mg/kg/injection, schedule: Q07DX003 (ip), vehicle: saline, higher = larger tumour) 64 % of control; (endpoint: median tumor weight (est.), dose: 200.0 mg/kg/injection, schedule: Q07DX003 (ip), vehicle: saline, higher = larger tumour) 99 % of control; (endpoint: median tumor weight (est.), dose: 400.0 mg/kg/injection, schedule: Q07DX003 (ip), vehicle: saline, higher = larger tumour) 98 % of control; (endpoint: median tumor weight (est.), dose: 800.0 mg/kg/injection, schedule: Q07DX003 (ip), vehicle: saline, higher = larger tumour) 92 % of control.
`COc1cccc2c1C(=O)c1c(O)c3c(c(O)c1C2=O)C[C@H](O)C[C@@H]3OC1CC(N)C(O)C(C)O1` (stereo partly drawn): the T/C (endpoint: median tumor weight (est.), dose: 3.38 mg/kg/injection, schedule: Q07DX002 (ip), vehicle: water, higher = larger tumour) is 97 % of control; the T/C (endpoint: median tumor weight (est.), dose: 13.5 mg/kg/injection, schedule: Q07DX002 (ip), vehicle: water, higher = larger tumour) was 108 % of control; the T/C (endpoint: median tumor weight (est.), dose: 15.0 mg/kg/injection, schedule: Q07DX002 (ip), vehicle: saline, higher = larger tumour) was 87 % of control; the T/C (endpoint: median tumor weight (est.), dose: 24.0 mg/kg/injection, schedule: Q07DX002 (ip), vehicle: saline, higher = larger tumour) was 101 % of control; the T/C (endpoint: median tumor weight (est.), dose: 27.0 mg/kg/injection, schedule: Q07DX002 (ip), vehicle: water, higher = larger tumour) is 55 % of control; the T/C (endpoint: median tumor weight (est.), dose: 38.0 mg/kg/injection, schedule: Q07DX002 (ip), vehicle: saline, higher = larger tumour) was 61 % of control.
Turning to `CN(N=O)C(=O)N[C@@H](C=O)[C@@H](O)[C@H](O)[C@H](O)CO`, the T/C (endpoint: median survival time, dose: 23.0 mg/kg/injection, schedule: Q01DX010 (sc), vehicle: other, higher = longer survival) is 110 % of control; the T/C (endpoint: median survival time, dose: 37.0 mg/kg/injection, schedule: Q01DX010 (sc), vehicle: other, higher = longer survival) is 100 % of control; the T/C (endpoint: median survival time, dose: 60.0 mg/kg/injection, schedule: Q01DX010 (sc), vehicle: other, higher = longer survival) was 115 % of control; the T/C (endpoint: median tumor weight (est.), dose: 12.5 mg/kg/injection, schedule: Q07DX003 (ip), vehicle: other, higher = larger tumour) was 78 % of control; the T/C (endpoint: median tumor weight (est.), dose: 25.0 mg/kg/injection, schedule: Q07DX003 (ip), vehicle: other, higher = larger tumour) was 54 % of control; the T/C (endpoint: median tumor weight (est.), dose: 50.0 mg/kg/injection, schedule: Q07DX003 (ip), vehicle: other, higher = larger tumour) was 66 % of control. Further, the T/C by setting is: (endpoint: median tumor weight (est.), dose: 100.0 mg/kg/injection, schedule: Q07DX003 (ip), vehicle: other, higher = larger tumour) 56 % of control; (endpoint: median tumor weight (est.), dose: 200.0 mg/kg/injection, schedule: Q07DX003 (ip), vehicle: other, higher = larger tumour) 34 % of control.
Consider `COC1(OC)C2C=CC1CC2`, for which the T/C is 73 % of control (endpoint: median tumor weight (est.), dose: 12.5 mg/kg/injection, schedule: Q07DX002 (ip), vehicle: saline with Tween-80, higher = larger tumour); 105 % of control and 107 % of control (endpoint: median tumor weight (est.), dose: 50.0 mg/kg/injection, schedule: Q07DX002 (ip), vehicle: saline with Tween-80, higher = larger tumour); 80 % of control and 94 % of control (endpoint: median tumor weight (est.), dose: 200.0 mg/kg/injection, schedule: Q07DX002 (ip), vehicle: saline with Tween-80, higher = larger tumour); 113 % of control and 105 % of control (endpoint: median tumor weight (est.), dose: 400.0 mg/kg/injection, schedule: Q07DX002 (ip), vehicle: saline with Tween-80, higher = larger tumour).
`CN(C)CCN(C)CC(C)(C)C(=O)/C=C/c1ccccc1`: the T/C was 119 % of control (endpoint: median tumor weight (est.), dose: 31.25 mg/kg/injection, schedule: Q07DX002 (ip), vehicle: saline, higher = larger tumour); 11 % of control (endpoint: median tumor weight (est.), dose: 62.5 mg/kg/injection, schedule: Q07DX002 (ip), vehicle: saline, higher = larger tumour); 52 % of control (endpoint: median tumor weight (est.), dose: 125.0 mg/kg/injection, schedule: Q07DX002 (ip), vehicle: saline, higher = larger tumour).
As for `CCOC(=O)CC(SP(=S)(OC)OC)C(=O)OCC` (stereo not drawn), the T/C is 114 % of control (endpoint: median tumor weight (est.), dose: 50.0 mg/kg/injection, schedule: Q07DX002 (ip), vehicle: suspension in saline, higher = larger tumour); 67 % of control (endpoint: median tumor weight (est.), dose: 56.0 mg/kg/injection, schedule: Q07DX002 (ip), vehicle: saline with Tween-80, higher = larger tumour); 119 % of control (endpoint: median tumor weight (est.), dose: 100.0 mg/kg/injection, schedule: Q07DX002 (ip), vehicle: suspension in saline, higher = larger tumour); 102 % of control (endpoint: median tumor weight (est.), dose: 112.0 mg/kg/injection, schedule: Q07DX002 (ip), vehicle: saline with Tween-80, higher = larger tumour); 49 % of control (endpoint: median tumor weight (est.), dose: 200.0 mg/kg/injection, schedule: Q07DX002 (ip), vehicle: suspension in saline, higher = larger tumour); 88 % of control (endpoint: median tumor weight (est.), dose: 225.0 mg/kg/injection, schedule: Q07DX002 (ip), vehicle: saline with Tween-80, higher = larger tumour). The T/C (endpoint: median tumor weight (est.), dose: 400.0 mg/kg/injection, schedule: Q07DX002 (ip), vehicle: suspension in saline, higher = larger tumour) was 69 % of control.
For `CC(=O)OC1C2OC3C=C(C)CCC3(CO)C(C)(C1O)C21CO1` (stereo not drawn), under setting [6], the T/C is 80 % of control.
Consider `CCN(CC)CCOC(=O)Cc1cc(OC)cc2c(=O)cc(-c3ccccc3)oc12`, for which the T/C is, setting by setting: under setting [4], 65 % of control; under setting [5], 82 % of control; under setting [1], 56 % of control; under setting [2], 111 % of control; under setting [3], 104 % of control.
As to `CO[C@@]12[C@H](COC(N)=O)C3=C(C(=O)C(C)=C(N)C3=O)N1C[C@@H]1N[C@@H]12`, the T/C reads like this: (endpoint: median tumor weight (est.), dose: 0.5 mg/kg/injection, schedule: Q07DX002 (ip), vehicle: saline, higher = larger tumour) 62 % of control and 70 % of control; (endpoint: median tumor weight (est.), dose: 0.5 mg/kg/injection, schedule: Q07DX002 (ip), vehicle: water, higher = larger tumour) 90 % of control; (endpoint: median tumor weight (est.), dose: 1.0 mg/kg/injection, schedule: Q07DX002 (ip), vehicle: clinical formulation, higher = larger tumour) 85 % of control; under setting [6], 58 % of control and 61 % of control; (endpoint: median tumor weight (est.), dose: 1.0 mg/kg/injection, schedule: Q07DX002 (ip), vehicle: water, higher = larger tumour) 80 % of control; (endpoint: median tumor weight (est.), dose: 2.0 mg/kg/injection, schedule: Q07DX002 (ip), vehicle: clinical formulation, higher = larger tumour) 84 % of control. Also, the T/C is, setting by setting: (endpoint: median tumor weight (est.), dose: 2.0 mg/kg/injection, schedule: Q07DX002 (ip), vehicle: saline, higher = larger tumour) 35 % of control and 51 % of control; (endpoint: median tumor weight (est.), dose: 2.0 mg/kg/injection, schedule: Q07DX002 (ip), vehicle: water, higher = larger tumour) 30 % of control; (endpoint: median tumor weight (est.), dose: 3.75 mg/kg/injection, schedule: Q07DX002 (oral), vehicle: water, higher = larger tumour) 112 % of control; (endpoint: median tumor weight (est.), dose: 4.0 mg/kg/injection, schedule: Q07DX002 (ip), vehicle: clinical formulation, higher = larger tumour) 20 % of control; (endpoint: median tumor weight (est.), dose: 4.0 mg/kg/injection, schedule: Q07DX002 (ip), vehicle: saline, higher = larger tumour) 8 % of control and 22 % of control; (endpoint: median tumor weight (est.), dose: 4.0 mg/kg/injection, schedule: Q07DX002 (ip), vehicle: water, higher = larger tumour) 13 % of control. Besides, the T/C (endpoint: median tumor weight (est.), dose: 7.5 mg/kg/injection, schedule: Q07DX002 (oral), vehicle: water, higher = larger tumour) was 93 % of control; the T/C (endpoint: median tumor weight (est.), dose: 15.0 mg/kg/injection, schedule: Q07DX002 (oral), vehicle: water, higher = larger tumour) was 21 % of control; the T/C (endpoint: median tumor weight (est.), dose: 30.0 mg/kg/injection, schedule: Q07DX002 (oral), vehicle: water, higher = larger tumour) was 28 % of control.
For `CS(=O)(=O)OCCCCOS(C)(=O)=O`, the T/C (endpoint: median tumor weight (est.), dose: 32.0 mg/kg/injection, schedule: Q01DX005 (ip), vehicle: saline with Tween-80, higher = larger tumour) was 15 % of control.
